What was measured:
[1] = in vivo, cited from earlier work
[2] = system: bioavailable intracellular iron; test: IRE-controlled luciferase reporter in 293T cells; type: cell-based, human; settings: 12 hr
Method: 293T cells (10^5 cells/well of 12-well microplates) were seeded and transfected 20 hr later with a firefly luciferase (Luc)-expressing reporter plasmid and corresponding Renilla luciferase (Ren)-expressing reference plasmid using TransFectin™ (Bio-Rad, Hercules, Calif.). The bioavailable intracellular iron concentration was monitored using plasmids obtained from B. Galy and M. W. Hentze (EMBL, Heidelberg). Plasmid pcFIF-Luc contains the mouse ferritin H 5′-UTR with an iron response element (IRE) controlling Luc; pcFIRo-Ren is a similar construct expressing a mutated non-functional IRE fused to Ren. The activity of the HIV-1 promoter was monitored using the pNL4-3-Luc E molecular clone (Chen et al. (1994) J Virol 68: 654-660.), based on the recombinant infectious proviral clone that contains DNA from HIV isolates NY5 (5′ half) and IIIB (3′ half). This plasmid, obtained from D. Baltimore (Caltech, Pasadena), contains the Luc gene in place of 102 nucleotides from nef and 6 nucleotides from env. pCMV-Ren (Promega, Madison, Wis.) was used as reference for pNL4-3-Luc E. Compounds were added at the time of transfection. Cells were harvested 12 hr later, washed with phosphate-buffered saline, and lysed for the dual luciferase assay (Dual Luciferase™ Reporter Assay System; Promega, Madison, Wis.). Luc data were normalized to the Ren internal controls (Hogue et al. (2009) Retrovirology 6: 90.).
Both CPX and DEF are hydroxypyridinones with vicinally positioned oxygen atoms that mediate bidentate interaction with metal ions, in particular Fe^3+ (FIG. 11A). To evaluate the effect of drugs on the intracellular iron pool and on HIV-1 gene expression, transient expression assays in human 293T cells were exploited. Bioavailable intracellular iron was measured using a construct in which an iron-responsive element (IRE) controls luciferase expression, and HIV-specific transcription was assayed in parallel using an HIV-1 molecular clone that expresses luciferase reporter under the direction of the retroviral promoter. CPX and DEF were compared with the medicinal chelator deferoxamine (DFOX) and with the CPX fragment Agent P2, which consists of the metal-binding 1,2-HOPO domain of CPX but lacks the cyclohexyl moiety (FIG. 11A).

[3] = system: HIV p24; test: p24 expression from pNL4-3-LucE- molecular clone in 293T cells; type: cell-based, HIV-1; settings: 293T cell extract; 12 hr post-transfection
Method: FIGS. 3A-D are a set of diagrams and photographs showing drug effects on luciferase expression from an HIV-1 molecular clone. A. Comparison of drug effects on luciferase expression from the pNL4-3-LucE- molecular clone in 293T cells. The molecular clone pNL4-3-LucE- and pCMV-Ren were transfected into 293T cells. Drugs were added where indicated at the following concentrations: P2 (30 μM), CPX (30 μM), DEF (250 μM), or DFOX (15 μM). Dual luciferase assays were conducted at 12 hr post-transfection. Firefly (FF) luciferase expression was normalized to Renilla luciferase (Ren) from pCMV-Ren (mean of 2 experiments in duplicate, ±SD). B. Expression in Jurkat cells was assayed essentially as in panel A. C. Firefly and Renilla luciferase RNA expression was analyzed in 293T cells treated as in panel A by RPA using 32P-[UTP] labeled antisense RNA probes corresponding to the C-termini of the FF and Ren luciferase mRNAs. D. Comparison of drug effects on p24 expression from the pNL4-3-LucE- molecular clone in 293T cells. Drugs were added where indicated to the same concentrations as in A. p24 levels were determined in cell extract at 12 hr post-transfection.
p24 core antigen in the supernatant was quantified by ELISA (Retrotek HIV-1 p24™; ZeptoMetrix Corp.; Buffalo, N.Y.). HIV-1 RNA copy number in the supernatant was determined with a PCR-based and FDA-approved assay (Amplicor HIV-1 Monitor™; Roche Diagnostics Corp.; Indianapolis, Ind.). IFN-γ and IL-10 in the supernatant were determined by cytometric bead array (Human Th1/Th2 Cytokine Kit II™; BD Biosciences Pharmingen, San Jose, Calif.).

[4] = target: T1, eIF5A:DHS complex (Homo sapiens, UniProt P49366); test: Co-immunoprecipitation of eIF5A with DHS from 293T cell extracts; type: cell-based; settings: 293T transfected with FLAG-DHS
T1 construct: expressed in transfected cells; host or cells: 293T cells (FLAG-DHS transfected, eIF5A endogenous)
T1 sequence (P49366 1-369): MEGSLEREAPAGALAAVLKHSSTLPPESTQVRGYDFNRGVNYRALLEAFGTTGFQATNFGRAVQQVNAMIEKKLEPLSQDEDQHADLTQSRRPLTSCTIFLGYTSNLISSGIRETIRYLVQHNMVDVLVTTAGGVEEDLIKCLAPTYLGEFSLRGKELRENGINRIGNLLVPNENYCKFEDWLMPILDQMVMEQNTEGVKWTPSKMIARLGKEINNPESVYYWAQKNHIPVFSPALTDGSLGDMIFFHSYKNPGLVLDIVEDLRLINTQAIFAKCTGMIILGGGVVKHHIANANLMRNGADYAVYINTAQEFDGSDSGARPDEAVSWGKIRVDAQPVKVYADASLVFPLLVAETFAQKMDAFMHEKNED
Method: (§1) Immunoprecipitation and immunoblotting experiments were carried out as described previously in Hoque et al. Mol Cell Biol 2003, 23:1688-1702.
(§2) eIF5A forms tight complexes with its modifying enzymes. Unmodified eIF5A (lysine-50) immunoprecipitates with DHS and deoxyhypusyl-eIF5A interacts with DOHH in vitro. It was discovered that the deoxyhypusyl-eIF5A:DOHH complex formed in vivo can be detected by immunoprecipitation from cell extracts. Taking advantage of this finding, the effects of the drugs on the enzyme-substrate interaction were tested. FLAG-eIF5A was expressed in 293T cells and complexes that immunoprecipitated with anti-FLAG antibody were immunoblotted and probed with antibodies against DOHH. […] As a further control, the DHS inhibitor GC7 was included in this assay. […] As expected, none of the compounds affected the immunoprecipitation of FLAG-eIF5A (FIG. 2D, middle panel) or the expression of endogenous eIF5A (FIG. 2D, bottom panel). Reciprocally, the interaction between endogenous eIF5A and tagged DOHH was inhibited by CPX and DEF (FIG. 2E, right). Similarly, the interaction of endogenous eIF5A with tagged DHS was inhibited by GC7 (FIG. 2E, left) but resistant to CPX and DEF. It is concluded that CPX and DEF, but not P2 or DFOX, target DOHH and inhibit its interaction with its substrate, deoxyhypusylelF5A.

[5] = target: T2, eIF5A:DOHH complex (Homo sapiens, UniProt Q9BU89); test: Co-immunoprecipitation of eIF5A with DOHH from 293T cell extracts; type: cell-based; settings: CPX 30 μM, P2 30 μM, DEF 250 μM, DFOX 10 μM, GC7 10 μM; 24 hr
T2 construct: Endogenous DOHH co-immunoprecipitated with FLAG-eIF5A; expressed in transfected cells; host or cells: 293T cells (DOHH endogenous, FLAG-eIF5A transfected)
T2 sequence (Q9BU89 1-302): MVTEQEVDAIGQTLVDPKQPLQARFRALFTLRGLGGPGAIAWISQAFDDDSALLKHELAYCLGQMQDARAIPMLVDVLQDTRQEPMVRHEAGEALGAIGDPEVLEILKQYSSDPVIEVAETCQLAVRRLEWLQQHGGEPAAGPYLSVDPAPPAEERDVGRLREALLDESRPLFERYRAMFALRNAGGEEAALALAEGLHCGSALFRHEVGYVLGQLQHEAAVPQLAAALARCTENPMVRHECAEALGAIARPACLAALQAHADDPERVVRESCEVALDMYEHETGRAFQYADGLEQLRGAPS
Method: as §1, §2

interaction of endogenous eIF5A with tagged DHS [4]	association of endogenous DOHH with FLAG-eIF5A [5]	Compound	peak concentration achievable in patients ([1]; human) [µM]	maximum achievable in human plasma [1] [µM]	reduction of intracellular iron (IRE-dependent luciferase) [2] [%]	inhibition of HIV p24 expression from the molecular clone [3]
–	–	CC(=O)N(O)CCCCCNC(=O)CCC(=O)N(O)CCCCCNC(=O)CCC(=O)N(O)CCCCCN [DFOX, deferoxamine]	15	20	80	no effect
inhibited	No DOHH was associated with FLAG-eIF5A	NCCCCCCCN=C(N)N [GC7]	–	–	–	–

Reference: US20120225093A1, “Abrogating HIV-1 Infection via Drug-Induced Reactivation of Apoptosis” (UNIVERSITY OF MEDICINE AND DENTISTRY OF NEW JERSEY, priority 2010, published 2012)
